Laboratory results taken from patent US20110104173A1, “INHIBITION OF DEGRADATION OF EXTRACELLULAR MATRIX” (The Australian National University, priority 2006, published 2011).

How the values were obtained:
[1] = tested on: prediabetic adult female NOD/Lt mice; test: PI-88 treatment of prediabetic NOD/Lt mice, onset of autoimmune diabetes; assay type: in vivo, mouse; settings: PI-88 10 mg/kg/day i.p. from 10.5 weeks of age, vs saline controls
Description: FIG. 3: PI-88 treatment prevents development of autoimmune diabetes in NOD/Lt mice. […] The incidence of diabetes in the holding female NOD/Lt mouse colony of the inventors is 60%.
Studies conducted by the inventors have shown that heparanase transcripts are increased 7-fold in prediabetic and diabetes-onset NOD mice, compared to neonatal NOD mice; only background levels were detected in normal CBA/H mice (see TABLE 1).

[2] = tested on: NODscid islet isografts in diabetic NOD/Lt female mice; test: NODscid islet isografts in diabetic NOD/Lt mice, recurrence of autoimmune disease; assay type: in vivo, mouse
Description: FIG. 8: (a) PI-88 therapy prevents disease recurrence in islet isografts. Isografts of 450-500 female NODscid islets transplanted beneath the kidney capsule of diabetic NOD/Lt female mice return non-fasting blood glucose levels to the normal range (shaded region defines the normal range). Without further treatment in a control recipient (circles), hyperglycemia returned from day 3. In contrast, an NODscid islet isograft maintains normoglycemia for up to 14 days in a diabetic NOD mouse treated with PI-88 (10 mg/kg/day i.p.) from day 3 (squares).
Consequently in vivo treatment of transplanted mice with PI-88 should prevent islet allograft rejection, disease recurrence in islet isografts (see FIG. 8) and facilitate the survival and function of islet allografts in diabetic NOD/Lt mice. To assess whether PI-88 therapy is graft-protective, NODscid islets were transplanted to autoimmune diabetic NOD mice 400-500 islets/graft. The mice were treated with PI-88 (10 mg/kg/day) i.p. from day 3 post-transplant (after graft revascularisation). Control transplanted mice were treated with saline. Graft function was monitored by measurement of non-fasting blood glucose levels (using a glucometer (MediSense 2)) 2-3×/week.

[3] = tested on: BALB/c (H-2d) islet allografts in CBA/H (H-2k) mice; test: BALB/c islet allograft survival in CBA/H mice; assay type: in vivo, mouse; settings: 7 days post-transplant, PI-88 treated recipient vs control
Description: HS plays a critical role in maintaining the integrity and survival of islets and islet beta cells. […] It is therefore possible that heparanase also plays an important role in the immunological destruction of islet allografts (even in the absence of autoimmune attack). […] Heparanase inhibitors therefore represent an anti-rejection strategy for islet transplants in allogeneic hosts and have the capacity to protect grafted islets from both alloimmune and autoimmune attack.

[4] = tested on: lipopolysaccharride (LPS)-induced inflammation; settings: in vivo treatment, rodents; cited from earlier work
BALB/c islet beta cells = test: Islet beta cell survival in vitro after heparitinase treatment; assay type: cell-based, mouse; settings: 5-50 μg/ml heparin in culture, P<0.0001
Description: FIG. 9: Isolated islets dispersed into single cells are predominantly insulin-producing beta cells, as confirmed by immunofluorescence. In contrast to control islet cells that remained intact over a 2 day culture period, beta cells treated for 1 hr with bacterial heparitinases (heparinases) (I+II+III; 0.25 U/ml) died (a). Placement of treated cells on an ECM (produced in vitro by a cell line) was able to largely rescue the beta cells from heparitinase-induced cell death (a).
In vitro studies were undertaken to further validate this concept. Isolated BALB/c islets dispersed into single cells using Dispase (1 mg/ml) consist predominantly of insulin-producing beta cells, as confirmed by immunofluorescence. […] Placement of treated cells on an ECM (produced in vitro by a cell line) was able to largely rescue the beta cells from heparitinase-induced cell death (P<0.0001) (FIG. 9(a)). These findings indicate that islet beta cells need cell-associated HS to survive. […] Islet beta cells therefore require cell-associated HS to remain viable and healthy.

skin allograft = settings: heparins exhibiting some anti-heparanase activity, mice; cited from earlier work

| Substance | onset of clinical diabetes [1] | time normoglycemia (non-fasting blood glucose) maintained by islet isograft ([2]; PI-88 10 mg/kg/day i.p. from day 3 post-transplant, control hyperglycemic from day 3) | isograft histology at harvest (hematoxylin and eosin) ([2]; PI-88-treated mouse, control isograft showed aggressive autoimmune destruction) | islet allograft histology [3] | LPS-induced inflammation [4] | leukocyte behaviour by intra-vital microscopy [4] | rescue of heparitinase-treated beta cells from cell death (BALB/c islet beta cells) | skin allograft survival (skin allograft) |
| --- | --- | --- | --- | --- | --- | --- | --- | --- |
| PI-88 | prevents the onset of clinical diabetes in mice up to 24 weeks of age | up to 14 days | revascularised islets | better preservation of the engrafted allogeneic islets | prevented | leukocyte rolling and adherence to the vascular BM but no extravasation | – | – |
| heparin | – | – | – | – | – | – | efficiently rescued | prolonged skin allograft survival |
